Results: patent US10975093B2, “Fused 1,4-diazepines as BET protein degraders” (THE REGENTS OF THE UNIVERSITY OF MICHIGAN, priority 2016, dated 2021)

Assays:
Format in all cases: cell-based
MOLM-13 = assay: Cell growth inhibition, CellTiter-Glo Luminescent Cell Viability Assay, MOLM-13; conditions: Homo sapiens, MOLM-13 cells, 4 days incubation
Method in brief: (§1)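 Cells were seeded at 2,000/well with serially diluted compound and grown 4 days at 37° C, 5% CO2. Viability was read by CellTiter-Glo luminescence after 10-20 min at room temperature, and IC50 was fitted from the dose-response.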

MDA-MB-468 = assay: Cell growth inhibition, CellTiter-Glo Luminescent Cell Viability Assay, MDA-MB-468; conditions: Homo sapiens, 96 h, MDA-MB-468 cells, 4 days incubation
Experimental: (§2) Cell growth inhibitory activity of representative Compounds of the Disclosure was determined in various cell lines using CellTiter-Glo® Luminescent Cell Viability Assay. Cells were seeded in 384-well white opaque cell culture plates at a density of 2,000 cells/well with serially diluted compounds and incubated at 37° C. in an atmosphere of 95% air and 5% CO2 for 4 days. Cell viability was determined using the CellTiter-Glo® Luminescent Cell Viability Assay Kit (Promega, Madison, Wis.) according to the manufacture's instruction. Briefly, a volume of CellTiter-Glo® Reagent equal to the volume of cell culture medium was added to each well, and then the plates were incubated at room temperature for 10-20 minutes. The luminescent signal was measured using a Tecan Infinite M1000 multimode microplate reader (Tecan, Morrisville, N.C.). The half maximal inhibitory concentration (IC50) was calculated using the GraphPad Prism 5 software (GraphPad Software, La Jolla, Calif.).

RS4; 11 = assay: Cell growth inhibition, CellTiter-Glo Luminescent Cell Viability Assay, RS4;11; conditions: Homo sapiens, 96 h, RS4;11 cells, 4 days incubation
Experimental: as §2

MDA-MB-231 = assay: Cell growth inhibition, CellTiter-Glo Luminescent Cell Viability Assay, MDA-MB-231; conditions: Homo sapiens, MDA-MB-231 cells, 4 days incubation
Method in brief: as §1

Compound: Cc1c(C#Cc2cn(CCCCNc3cccc4c3CN(C3CCC(=O)NC3=O)C4=O)nn2)sc2c1C(c1ccc(Cl)cc1)=N[C@@H](C)c1nnc(C)n1-2 (stereo partly drawn) [Cpd. No. 6, 3-(4-((4-(4-(((S)-4-(4-chlorophenyl)-3,6,9-trimethyl-6H-thieno[3,2-f][1,2,4]triazolo[4,3-a][1,4]diazepin-2-yl)ethynyl)-1H-1,2,3-triazol-1-yl)butyl)amino)-1-oxoisoindolin-2-yl)piperidine-2,6-dione]
- IC50 (MOLM-13; 96 h): 0.77 nM
- IC50 (MDA-MB-468): 1.7 nM
- IC50 (RS4; 11): < 0.0015 nM
- IC50 (MDA-MB-231; 96 h): 2.3 nM

Compound: Cc1c(C#Cc2cnn(CCCC#Cc3cccc4c3C(=O)N(C3CCC(=O)NC3=O)C4=O)c2)sc2c1C(c1ccc(Cl)cc1)=NCc1nnc(C)n1-2 (stereo not shown) [Cpd. No. 25, 4-(5-(4-((4-(4-chlorophenyl)-3,9-dimethyl-6H-thieno[3,2-f][1,2,4]triazolo[4,3-a][1,4]diazepin-2-yl)ethynyl)-1H-pyrazol-1-yl)pent-1-yn-1-yl)-2-(2,6-dioxopiperidin-3-yl)isoindoline-1,3-dione]
- IC50 (MOLM-13; MOLM-13, 96 h): 9.1 nM
- IC50 (MDA-MB-468): 34.9 nM
- IC50 (RS4; 11): 1 nM
- IC50 (MDA-MB-231; MDA-MB-231, 96 h): 24.2 nM

Compound: Cc1c(C#Cc2cnn(CCCC#Cc3ccc(F)c4c3CN(C3CCC(=O)NC3=O)C4=O)c2)sc2c1C(c1ccc(Cl)cc1)=NCc1nnc(C)n1-2 (stereo not shown) [compound 142, 3-(4-(5-(4-((4-(4-chlorophenyl)-3,9-dimethyl-6H-thieno[3,2-f][1,2,4]triazolo[4,3-a][1,4]diazepin-2-yl)ethynyl)-1H-pyrazol-1-yl)pent-1-yn-1-yl)-7-fluoro-1-oxoisoindolin-2-yl)piperidine-2,6-dione]
- IC50 (MOLM-13; MOLM-13, 96 h): 6.4 nM
- IC50 (MDA-MB-468): 32.9 nM
- IC50 (RS4; 11): 1 nM
- IC50 (MDA-MB-231; MDA-MB-231, 96 h): 30.4 nM

Compound: Cc1c(C#Cc2ccc(CCCCNc3cccc4c3CN(C3CCC(=O)NC3=O)C4=O)cn2)sc2c1C(c1ccc(Cl)cc1)=N[C@@H](C)c1nnc(C)n1-2 (stereo partly drawn) [Cpd. No. 8, 3-(4-((4-(6-(((S)-4-(4-chlorophenyl)-3,6,9-trimethyl-6H-thieno[3,2-f][1,2,4]triazolo[4,3-a][1,4]diazepin-2-yl)ethynyl)pyridin-3-yl)butyl)amino)-1-oxoisoindolin-2-yl)piperidine-2,6-dione]
- IC50 (MOLM-13; 96 h): 0.26 nM
- IC50 (MDA-MB-468): 0.65 nM
- IC50 (RS4; 11): 0.19 nM
- IC50 (MDA-MB-231; 96 h): 0.17 nM

Compound: Cc1c(C#Cc2cn(CCCC#Cc3cccc4c3CN(C3CCC(=O)NC3=O)C4=O)cn2)sc2c1C(c1ccc(Cl)cc1)=NCc1nnc(C)n1-2 (stereo not shown) [Cpd. No. 26, 3-(4-(5-(4-((4-(4-chlorophenyl)-3,9-dimethyl-6H-thieno[3,2-f][1,2,4]triazolo[4,3-a][1,4]diazepin-2-yl)ethynyl)-1H-imidazol-1-yl)pent-1-yn-1-yl)-1-oxoisoindolin-2-yl)piperidine-2,6-dione]
- IC50 (MOLM-13; 96 h): 39.2 nM
- IC50 (MDA-MB-468): > 100 nM
- IC50 (RS4; 11): > 10 nM
- IC50 (MDA-MB-231; 96 h): > 100 nM

Compound: Cc1c(C#Cc2cnn(CCCCCc3cccc4c3CN(C3CCC(=O)NC3=O)C4=O)c2)sc2c1C(c1ccc(Cl)cc1)=N[C@@H](C)c1nnc(C)n1-2 (stereo partly drawn) [Cpd. No. 24, 3-(4-(5-(4-(((S)-4-(4-chlorophenyl)-3,6,9-trimethyl-6H-thieno[3,2-f][1,2,4]triazolo[4,3-a][1,4]diazepin-2-yl)ethynyl)-1H-pyrazol-1-yl)pentyl)-1-oxoisoindolin-2-yl)piperidine-2,6-dione]
- IC50 (MOLM-13; MOLM-13, 96 h): < 0.015 nM
- IC50 (MDA-MB-468): < 0.015 nM
- IC50 (RS4; 11): < 0.015 nM
- IC50 (MDA-MB-231; MDA-MB-231, 96 h): < 0.015 nM

Compound: Cc1c(C#Cc2cncn2CCCC#Cc2cccc3c2C(=O)N(C2CCC(=O)NC2=O)C3=O)sc2c1C(c1ccc(Cl)cc1)=NCc1nnc(C)n1-2 (stereo not shown) [Cpd. No. 29, 4-(5-(5-((4-(4-chlorophenyl)-3,9-dimethyl-6H-thieno[3,2-f][1,2,4]triazolo[4,3-a][1,4]diazepin-2-yl)ethynyl)-1H-imidazol-1-yl)pent-1-yn-1-yl)-2-(2,6-dioxopiperidin-3-yl)isoindoline-1,3-dione]
- IC50 (MOLM-13; MOLM-13, 96 h): 22.8 nM
- IC50 (MDA-MB-468): > 100 nM
- IC50 (RS4; 11): 7 nM
- IC50 (MDA-MB-231; MDA-MB-231, 96 h): > 100 nM

Compound: Cc1c(C#Cc2cn(CCCC#Cc3cccc4c3CN(C3CCC(=O)NC3=O)C4=O)nn2)sc2c1C(c1ccc(Cl)cc1)=N[C@@H](C)c1nnc(C)n1-2 (stereo partly drawn) [Cpd. No. 2, 3-(4-(5-(4-(((S)-4-(4-chlorophenyl)-3,6,9-trimethyl-6H-thieno[3,2-f][1,2,4]triazolo[4,3-a][1,4]diazepin-2-yl)ethynyl)-1H-1,2,3-triazol-1-yl)pent-1-yn-1-yl)-1-oxoisoindolin-2-yl)piperidine-2,6-dione]
- IC50 (MOLM-13; 96 h): 0.4 nM
- IC50 (MDA-MB-468): 0.27 nM
- IC50 (RS4; 11): < 0.0015 nM
- IC50 (MDA-MB-231; 96 h): 0.19 nM

Compound: Cc1c(C#Cc2cnn(CCCC#Cc3cccc4c3CN(C3CCC(=O)NC3=O)C4=O)c2)sc2c1C(c1ccc(Cl)cc1)=NCc1nnc(C)n1-2 (stereo not shown) [Cpd. No. 20, 3-(4-(5-(4-((4-(4-chlorophenyl)-3,9-dimethyl-6H-thieno[3,2-f][1,2,4]triazolo[4,3-a][1,4]diazepin-2-yl)ethynyl)-1H-pyrazol-1-yl)pent-1-yn-1-yl)-1-oxoisoindolin-2-yl)piperidine-2,6-dione]
- IC50 (MOLM-13; MOLM-13, 96 h): 0.8 nM
- IC50 (MDA-MB-468): 0.2 nM
- IC50 (RS4; 11): 0.1 nM
- IC50 (MDA-MB-231; MDA-MB-231, 96 h): 0.08 nM

Compound: Cc1c(C#Cc2ccc(CCCCOc3cccc4c3C(=O)N(C3CCC(=O)NC3=O)C4=O)cn2)sc2c1C(c1ccc(Cl)cc1)=NCc1nnc(C)n1-2 (stereo not shown) [Cpd. No. 9, 4-(4-(6-((4-(4-chlorophenyl)-3,9-dimethyl-6H-thieno[3,2-f][1,2,4]triazolo[4,3-a][1,4]diazepin-2-yl)ethynyl)pyridin-3-yl)butoxy)-2-(2,6-dioxopiperidin-3-yl)isoindoline-1,3-dione]
- IC50 (MOLM-13; 96 h): 19 nM
- IC50 (MDA-MB-468): 33 nM
- IC50 (RS4; 11): 2.3 nM
- IC50 (MDA-MB-231; 96 h): 20.4 nM

Compound: Cc1c(C#Cc2cn(CCCCCc3cccc4c3CN(C3CCC(=O)NC3=O)C4=O)nn2)sc2c1C(c1ccc(Cl)cc1)=NCc1nnc(C)n1-2 (stereo not shown) [Cpd. No. 3, 3-(4-(5-(4-((4-(4-chlorophenyl)-3,9-dimethyl-6H-thieno[3,2-f][1,2,4]triazolo[4,3-a][1,4]diazepin-2-yl)ethynyl)-1H-1,2,3-triazol-1-yl)pentyl)-1-oxoisoindolin-2-yl)piperidine-2,6-dione]
- IC50 (MOLM-13; 96 h): 1 nM
- IC50 (MDA-MB-468): 3.1 nM
- IC50 (RS4; 11): 0.27 nM
- IC50 (MDA-MB-231; 96 h): 3.5 nM

Compound: Cc1c(C#Cc2cnn(CCCCNc3cccc4c3C(=O)N(C3CCC(=O)NC3=O)C4=O)c2)sc2c1C(c1ccc(Cl)cc1)=NCc1nnc(C)n1-2 (stereo not shown) [Cpd. No. 21, 4-((4-(4-((4-(4-chlorophenyl)-3,9-dimethyl-6H-thieno[3,2-f][1,2,4]triazolo[4,3-a][1,4]diazepin-2-yl)ethynyl)-1H-pyrazol-1-yl)butyl)amino)-2-(2,6-dioxopiperidin-3-yl)isoindoline-1,3-dione]
- IC50 (MOLM-13; MOLM-13, 96 h): 1.1 nM
- IC50 (MDA-MB-468): 6.5 nM
- IC50 (RS4; 11): 0.3 nM
- IC50 (MDA-MB-231; MDA-MB-231, 96 h): 3.8 nM

Compound: Cc1c(C#Cc2cn(CCCC#Cc3cccc4c3CN(C3CCC(=O)NC3=O)C4=O)nn2)sc2c1C(c1ccc(Cl)cc1)=NCc1nnc(C)n1-2 (stereo not shown) [Cpd. No. 1, 3-(4-(5-(4-((4-(4-chlorophenyl)-3,9-dimethyl-6H-thieno[3,2-f][1,2,4]triazolo[4,3-a][1,4]diazepin-2-yl)ethynyl)-1H-1,2,3-triazol-1-yl)pent-1-yn-1-yl)-1-oxoisoindolin-2-yl)piperidine-2,6-dione]
- IC50 (MOLM-13; 96 h): 1.16 nM
- IC50 (MDA-MB-468): 10 nM
- IC50 (RS4; 11): 0.25 nM
- IC50 (MDA-MB-231; 96 h): 8.1 nM
